Measured values: patent publication US6455584B1, “Prostaglandin E1 derivatives” (Taisho Pharmaceutical Co., Ltd., priority 1999, dated 2002)

System: human vascular smooth muscle cells
Experiment: DNA synthesis inhibition activity of PGE1 derivatives to human vascular smooth muscle cells (3H-thymidine intake)
Format: cell-based
Settings: for Growth inhibition rate (percent to control): concentration of the added compound 1×10^−5 M, ethanol solution, 3H-thymidine intake after culturing 24 hours, compared with vehicle-treated control; for growth inhibition activity against human vascular smooth muscle cells: summary in words of Table 1, 1×10^−5 M
Method: Determination of DNA synthesis inhibition activity of PGE1 derivatives to human vascular smooth muscle cells
On a plate with 24 wells (manufactured by Corning Co.), 1×10^4 cells/well of quintic culture cells of vascular cells derived from normal human aorta (manufactured by Kurabo Co.) were inoculated and cultured for 2 days. The medium was exchanged from the growth medium (SG2: manufactured by Kurabo Co.) to the basal medium (SB2: manufactured by Kurabo Co.), and cultured for 24 hours, to which was added the growth medium (SG2) containing an ethanol solution of the test compound. 0.01 mci/well of ^3H-thymidine (manufactured by Daiichi Chemicals Co.) was added and, after culturing for 24 hours, the cultured supernatant was removed by suction, followed by washing with a phosphate buffer solution (PBS).
5% Trichloroacetic acid (TCA) was added and, after allowing to stand at 4° C. for 20 minutes, the mixture was washed once with TCA. The mixture was washed with PBS, and dissolved in 0.5 M aqueous potassium hydroxide solution. Intake of ^3H-thymidine was determined using 20 μl of the aqueous potassium hydroxide solution dissolving the cells which incorporated ^3H-thymidine in the nucleus by means of a liquid scintillation counter (manufactured by Hewlett-Packard Co.).
Note: Compounds 7, 70 and 92 in the table are those which were prepared in Examples. The test compounds were each used as an ethanol solution (the concentration of the added compound: 1×10^−5 M), and compared with control (vehicle-treated group).

| SMILES | Growth inhibition rate (percent to control) [%] | growth inhibition activity against human vascular smooth muscle cells |
| --- | --- | --- |
| CCCC[C@@H](C)CC(O)C#CC1C(CCCCCCC(=O)O)C(=O)C[C@H]1SCCO (stereo partly drawn) [Compound 7, (11R,17R)-11-deoxy-11-(2-hydroxyethylthio)-17,20-dimethyl-13,14-didehydro-PGE1] | 98.4 | high growth inhibition activity |
| CCCC[C@@H](C)CC(O)C#CC1C(CCCCOCC(=O)OC)C(=O)C[C@H]1SCCO (stereo partly drawn) [Compound 70, (11R,17R)-3-oxa-11-deoxy-11-(2-hydroxyethylthio)-17,20-dimethyl-13,14-didehydro-PGE1 Methyl Ester] | 95.6 | high growth inhibition activity |
| COC(=O)COCCCCC1C(=O)C[C@@H](SCCO)C1C#CC(O)C[C@H](C)CCC=C(C)C (stereo partly drawn) [Compound 92, (11R,17R)-3-oxa-11-deoxy-11-(2-hydroxyethylthio)-20-isopropylidene-17-methyl-13,14-didehydro-PGE1 Methyl Ester] | 99.3 | high growth inhibition activity |
